According to ChEMBL document CHEMBL1201861, “Genomics of Drug Sensitity in Cancer screening data, Wellcome Trust Sanger Institute”:

Key:
Experiment in all cases: cells
[1] = test system: GT3TKB; assay type: functional, cell-based, Homo sapiens; details: Homo sapiens, GT3TKB;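 note: growth inhibition of the cell line, read out with a cell viability assay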
Description: SANGER: Inhibition of human GT3TKB cell growth in a cell viability assay.

[2] = test system: KARPAS-299; assay type: functional, cell-based, Homo sapiens; details: Homo sapiens, KARPAS-299
Description: SANGER: Inhibition of human KARPAS-299 cell growth in a cell viability assay.

[3] = test system: NCI-H1770; assay type: functional, cell-based, Homo sapiens; details: Homo sapiens, NCI-H1770;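 note: growth inhibition of NCI-H1770 cells determined with a viability readout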
Description: SANGER: Inhibition of human NCI-H1770 cell growth in a cell viability assay.

[4] = test system: NOS-1; assay type: functional, cell-based, Homo sapiens; details: Homo sapiens, NOS-1;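 note: growth inhibition of the human NOS-1 cell line, read out with a cell viability assay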
Description: SANGER: Inhibition of human NOS-1 cell growth in a cell viability assay.

[5] = test system: OCI-AML2; assay type: functional, cell-based, Homo sapiens; details: Homo sapiens, OCI-AML2;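 note: growth inhibition of OCI-AML2 cells, read out with a cell viability assay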
Description: SANGER: Inhibition of human OCI-AML2 cell growth in a cell viability assay.

[6] = test system: BB30-HNC; assay type: functional, cell-based, Homo sapiens; details: Homo sapiens, BB30-HNC;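 note: growth inhibition of the cultured cell line, read out by a cell viability assay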
Description: SANGER: Inhibition of human BB30-HNC cell growth in a cell viability assay.

[7] = test system: no-11; assay type: functional, cell-based, Homo sapiens; details: Homo sapiens;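 note: growth inhibition of human NO-11 cells, read out with a cell viability assay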
Description: SANGER: Inhibition of human no-11 cell growth in a cell viability assay.

[8] = test system: CTB-1; assay type: functional, cell-based, Homo sapiens; details: Homo sapiens, CTB-1
Description: SANGER: Inhibition of human CTB-1 cell growth in a cell viability assay.

[9] = test system: D-502MG; assay type: functional, cell-based, Homo sapiens; details: Homo sapiens, D-502MG
Description: SANGER: Inhibition of human D-502MG cell growth in a cell viability assay.

[10] = test system: EM-2; assay type: functional, cell-based, Homo sapiens; details: Homo sapiens, EM-2;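 note: growth inhibition of EM-2 cells, read out with a cell viability assay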
Description: SANGER: Inhibition of human EM-2 cell growth in a cell viability assay.

[11] = test system: ES5; assay type: functional, cell-based, Homo sapiens; details: Homo sapiens, ES5;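 note: growth inhibition of human ES5 cells, read out by a cell viability assay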
Description: SANGER: Inhibition of human ES5 cell growth in a cell viability assay.

[12] = test system: EW-3; assay type: functional, cell-based, Homo sapiens; details: Homo sapiens, EW-3;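 note: cell viability assay read-out, IC50 reflects inhibition of growth of the EW-3 cells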
Description: SANGER: Inhibition of human EW-3 cell growth in a cell viability assay.

[13] = test system: GAK; assay type: functional, cell-based, Homo sapiens; details: Homo sapiens, GAK;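 note: cell growth inhibition read out by a cell viability assay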
Description: SANGER: Inhibition of human GAK cell growth in a cell viability assay.

[14] = test system: GB-1; assay type: functional, cell-based, Homo sapiens; details: Homo sapiens, GB-1;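 note: growth of GB-1 cells judged by a viability assay, IC50 marks the concentration inhibiting growth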
Description: SANGER: Inhibition of human GB-1 cell growth in a cell viability assay.

[15] = test system: HCC1187; assay type: functional, cell-based, Homo sapiens; details: Homo sapiens, HCC1187;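 note: growth inhibition of HCC1187 cells, read out with a cell viability assay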
Description: SANGER: Inhibition of human HCC1187 cell growth in a cell viability assay.

[16] = test system: IA-LM; assay type: functional, cell-based; details: Homo sapiens;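 note: cell viability assay measuring growth inhibition of human IA-LM cells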
Description: SANGER: Inhibition of human IA-LM cell growth in a cell viability assay.

[17] = test system: IST-MEL1; assay type: functional, cell-based, Homo sapiens; details: Homo sapiens, IST-MEL1;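 note: growth inhibition of the cell line, read out with a cell viability assay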
Description: SANGER: Inhibition of human IST-MEL1 cell growth in a cell viability assay.

[18] = test system: K5; assay type: functional, cell-based, Homo sapiens; details: Homo sapiens, K5
Description: SANGER: Inhibition of human K5 cell growth in a cell viability assay.

[19] = test system: KE-37; assay type: functional, cell-based, Homo sapiens; details: Homo sapiens, KE-37;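 note: growth inhibition of KE-37 cells, read out with a cell viability assay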
Description: SANGER: Inhibition of human KE-37 cell growth in a cell viability assay.

[20] = test system: KG-1; assay type: functional, cell-based, Homo sapiens; details: Homo sapiens, KG-1;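 note: growth inhibition of KG-1 cells, read out by a cell viability assay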
Description: SANGER: Inhibition of human KG-1 cell growth in a cell viability assay.

[21] = test system: KINGS-1; assay type: functional, cell-based, Homo sapiens; details: Homo sapiens, KINGS-1;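 note: cell viability assay measuring suppression of KINGS-1 cell growth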
Description: SANGER: Inhibition of human KINGS-1 cell growth in a cell viability assay.

[22] = test system: KLE; assay type: functional, cell-based; details: Homo sapiens;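 note: growth inhibition of human KLE cells, read out with a cell viability assay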
Description: SANGER: Inhibition of human KLE cell growth in a cell viability assay.

[23] = test system: LS-123; assay type: functional, cell-based, Homo sapiens; details: Homo sapiens, LS-123
Description: SANGER: Inhibition of human LS-123 cell growth in a cell viability assay.

[24] = test system: MFM-223; assay type: functional, cell-based, Homo sapiens; details: Homo sapiens, MFM-223
Description: SANGER: Inhibition of human MFM-223 cell growth in a cell viability assay.

[25] = test system: ML-2; assay type: functional, cell-based, Homo sapiens; details: Homo sapiens, ML-2;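 note: growth inhibition of ML-2 cells, measured with a cell viability readout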
Description: SANGER: Inhibition of human ML-2 cell growth in a cell viability assay.

[26] = test system: MN-60; assay type: functional, cell-based, Homo sapiens; details: Homo sapiens, MN-60;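 note: growth inhibition of the MN-60 cell line, determined with a cell viability assay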
Description: SANGER: Inhibition of human MN-60 cell growth in a cell viability assay.

[27] = test system: MOLT-16; assay type: functional, cell-based, Homo sapiens; details: Homo sapiens, MOLT-16;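 note: growth inhibition of human MOLT-16 cells, read out with a cell viability assay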
Description: SANGER: Inhibition of human MOLT-16 cell growth in a cell viability assay.

[28] = test system: MOLT-4; assay type: functional, cell-based, Homo sapiens; details: Homo sapiens, MOLT-4;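 note: growth inhibition of MOLT-4 cells, determined with a cell viability readout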
Description: SANGER: Inhibition of human MOLT-4 cell growth in a cell viability assay.

[29] = test system: NB6; assay type: functional, cell-based, Homo sapiens; details: Homo sapiens, NB6;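 note: growth inhibition of NB6 cells, read out by a cell viability assay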
Description: SANGER: Inhibition of human NB6 cell growth in a cell viability assay.

[30] = test system: NCI-H1092; assay type: functional, cell-based, Homo sapiens; details: Homo sapiens, NCI-H1092;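 note: cell growth inhibition measured with a cell viability assay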
Description: SANGER: Inhibition of human NCI-H1092 cell growth in a cell viability assay.

[31] = test system: NCI-H1395; assay type: functional, cell-based, Homo sapiens; details: Homo sapiens, NCI-H1395;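 note: cell viability assay read-out quantifying reduced proliferation of human NCI-H1395 cells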
Description: SANGER: Inhibition of human NCI-H1395 cell growth in a cell viability assay.

[32] = test system: NCI-H1581; assay type: functional, cell-based, Homo sapiens; details: Homo sapiens, NCI-H1581;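 note: cell growth inhibition read out by a viability assay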
Description: SANGER: Inhibition of human NCI-H1581 cell growth in a cell viability assay.

[33] = test system: NCI-H1650; assay type: functional, cell-based, Homo sapiens; details: Homo sapiens, NCI-H1650;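 note: growth inhibition of human NCI-H1650 cells measured by a cell viability assay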
Description: SANGER: Inhibition of human NCI-H1650 cell growth in a cell viability assay.

[34] = test system: NCI-H2126; assay type: functional, cell-based, Homo sapiens; details: Homo sapiens, NCI-H2126;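 note: growth inhibition of the cancer cell line, determined with a cell viability readout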
Description: SANGER: Inhibition of human NCI-H2126 cell growth in a cell viability assay.

[35] = test system: NCI-H526; assay type: functional, cell-based, Homo sapiens; details: Homo sapiens, NCI-H526;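 note: growth inhibition of the human NCI-H526 cell line, measured by a cell viability assay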
Description: SANGER: Inhibition of human NCI-H526 cell growth in a cell viability assay.

[36] = test system: NCI-H720; assay type: functional, cell-based, Homo sapiens; details: Homo sapiens, NCI-H720;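 note: growth inhibition of human NCI-H720 cells determined by a cell viability assay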
Description: SANGER: Inhibition of human NCI-H720 cell growth in a cell viability assay.

[37] = test system: PSN1; assay type: functional, cell-based, Homo sapiens; details: Homo sapiens, PSN1;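 note: suppression of growth of human PSN1 cells, read out by a cell viability assay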
Description: SANGER: Inhibition of human PSN1 cell growth in a cell viability assay.

[38] = test system: RKO; assay type: functional, cell-based, Homo sapiens; details: Homo sapiens, RKO;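 note: growth inhibition of human RKO cells, read out with a cell viability assay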
Description: SANGER: Inhibition of human RKO cell growth in a cell viability assay.

[39] = test system: SF-539; assay type: functional, cell-based, Homo sapiens; details: Homo sapiens, SF-539;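 note: Read-out is a cell viability assay, with IC50 reflecting inhibition of cell growth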
Description: SANGER: Inhibition of human SF539 cell growth in a cell viability assay.

[40] = test system: SNB-75; assay type: functional, cell-based, Homo sapiens; details: Homo sapiens, SNB-75;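 note: cell viability assay measuring growth inhibition of human SNB-75 cells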
Description: SANGER: Inhibition of human SNB75 cell growth in a cell viability assay.

[41] = test system: 697; assay type: functional, cell-based, Homo sapiens; details: Homo sapiens
Description: SANGER: Inhibition of human 697 cell growth in a cell viability assay.

[42] = test system: ATN-1; assay type: functional, cell-based, Homo sapiens; details: Homo sapiens, ATN-1;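 note: growth inhibition of human ATN-1 cells, read out with a cell viability assay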
Description: SANGER: Inhibition of human ATN-1 cell growth in a cell viability assay.

[43] = test system: BB49-HNC; assay type: functional, cell-based, Homo sapiens; details: Homo sapiens, BB49-HNC;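 note: cell viability assay read-out, reported as inhibition of BB49-HNC cell growth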
Description: SANGER: Inhibition of human BB49-HNC cell growth in a cell viability assay.

[44] = test system: BV-173; assay type: functional, cell-based, Homo sapiens; details: Homo sapiens, BV-173
Description: SANGER: Inhibition of human BV-173 cell growth in a cell viability assay.

[45] = test system: TE-10; assay type: functional, cell-based, Homo sapiens; details: Homo sapiens, TE-10;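 note: growth inhibition of TE-10 cells, measured by a cell viability assay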
Description: SANGER: Inhibition of human TE-10 cell growth in a cell viability assay.

[46] = test system: U-266; assay type: functional, cell-based, Homo sapiens; details: Homo sapiens, U-266
Description: SANGER: Inhibition of human U-266 cell growth in a cell viability assay.

[47] = test system: U-87 MG; assay type: functional, cell-based, Homo sapiens, U-87MG ATCC; details: Homo sapiens, U-87 MG;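 note: growth inhibition of the cells measured with a viability assay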
Description: SANGER: Inhibition of human U-87-MG cell growth in a cell viability assay.

[48] = test system: VA-ES-BJ; assay type: functional, cell-based, Homo sapiens; details: Homo sapiens, VA-ES-BJ;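 note: growth inhibition of the VA-ES-BJ cell line, read out by a cell viability assay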
Description: SANGER: Inhibition of human VA-ES-BJ cell growth in a cell viability assay.

[49] = test system: COLO-668; assay type: functional, cell-based, Homo sapiens; details: Homo sapiens, COLO-668
Description: SANGER: Inhibition of human COLO-668 cell growth in a cell viability assay.

Measured: IC50

CO[C@@H]1[C@H](N(C)C(=O)c2ccccc2)C[C@H]2O[C@]1(C)n1c3ccccc3c3c4c(c5c6ccccc6n2c5c31)C(=O)NC4 [MIDOSTAURIN]
380 nM: [1]
324 nM: [6]
> 512 nM: [2] | [3] | [4] | [5] | [7]

CC1=C(/C=C/C(C)=C/C=C/C(C)=C/C(=O)O)C(C)(C)CCC1 [TRETINOIN]
1030 nM: [36]
> 10000 nM: [1] | [18] | [2] | [3] | [4] | [5] | [6] | [7]
4.12 µM: [46]
4000 nM: [25]
480 nM: [12]
5.33 µM: [10]
7.68 µM: [35]
30.3 nM: [42]
1600 nM: [8] | [44]
> 10 µM: all other assays above

NC(=O)c1ccc(N(C(N)=O)c2c(F)cccc2F)nc1-c1ccc(F)cc1F [VX-702]
227 nM: [25]
666 nM: [12]
114 nM: [44]
16.8 nM: [36]
229 nM: [18]
> 2000 nM: [8] | [1] | [2] | [3] | [4] | [5] | [42] | [6] | [7]
> 2 µM: all other assays above
